Measurements: article PMC2375326, “In vitro evaluation of amino acid prodrugs of novel antitumour 2-(4-amino-3-methylphenyl)benzothiazoles” (British Journal of Cancer, 2002)

Legend:
CAKI-1 = assay: NCI in vitro cytotoxicity assay (SRB), CAKI-1; format: cell-based; conditions: Homo sapiens, 48 h exposure, sulforhodamine B assay, mean graph, read-out: Log10 GI50 (CAKI-1) (converted)
Experimental: (§1) Cell culture and drug application procedures have been described previously ([Boyd and Paull, 1995]). Briefly, cell lines were inoculated into a series of 96-well microtiter plates, with varied seeding densities depending on growth characteristics of each cell line. Following a 24 h drug free incubation, test agents were added at five 10-fold dilutions with a maximum concentration of 100 μM. Cellular protein levels were determined after 48 h drug exposure by sulphorhodamine B colorimetry.

NCI-460 = assay: NCI in vitro cytotoxicity assay (SRB), NCI-460; format: cell-based; conditions: Homo sapiens, 48 h exposure, sulforhodamine B assay, mean graph, read-out: Log10 GI50 (NCI-460) (converted)
Experimental: as §1

MCF-7 cells = assay: Prodrug uptake, conversion and metabolism (HPLC of media), MCF-7; format: in vitro ADME, human; conditions: prodrug 10 μM, days 1–7
Experimental: MCF-7 cells were seeded into 25 ml flasks at appropriate densities (5×10^5–5×10^6). After 24 h, medium was changed and drug introduced at a final concentration of 10 μM. Media samples, collected from flasks at time zero and 24 h intervals, were mixed with 1.5-fold volumes of high performance liquid chromatography (HPLC) grade acetonitrile to precipitate protein and centrifuged at 14 000 g for 5 min. Supernatants (600 μl) were mixed with 400 μl 10% acetonitrile in 1% acetic acid and analysed by HPLC. The system consisted of Beckman System Gold equipment (solvent module 128, autosampler 507e and multiple wavelength UV detector 168). Separation of parent compounds and biotransformation products was effected at room temperature on a Phenomenex Aqua C18 reversed-phase column (150×4.6 mm). The mobile phase was formed by increasing, then decreasing the acetonitrile concentration in 1% acetic acid over 20 min by mixing two solutions: acetonitrile-water-acetic acid (10 : 90 : 1, v v^−1) and acetonitrile-water-acetic acid (80 : 20 : 1 v v^−1) and delivered at a flow rate of 1 ml min^−1. Compounds were detected at 324 nm.

NCI-H522 = assay: NCI in vitro cytotoxicity assay (SRB), NCI-H522; format: cell-based; conditions: Homo sapiens, 48 h exposure, sulforhodamine B assay, mean graph, read-out: Log10 GI50 (NCI-H522) (converted)
Experimental: as §1

[1] = parameters: method as in Bradshaw et al, 2002; conditions: in vivo, compound 2 regenerated from lysylamide prodrug compound 2b; ref Bradshaw et al, 2002; cited from earlier work
KM12 = assay: NCI in vitro cytotoxicity assay (SRB), KM12; format: cell-based; conditions: Homo sapiens, 48 h exposure, sulforhodamine B assay, mean graph, read-out: Log10 GI50 (KM12) (converted)
Experimental: as §1

EKVX = assay: NCI in vitro cytotoxicity assay (SRB), EKVX; format: cell-based; conditions: Homo sapiens, 48 h exposure, sulforhodamine B assay, mean graph, read-out: Log10 GI50 (EKVX) (converted)
Experimental: as §1

[2] = system: CYP1A1 protein expression in MCF-7 cells; assay: Western blot of CYP1A1 protein, MCF-7 lysates; format: cell-based, human; conditions: 1 μM, 24 h
Experimental: (§2) Whole cell lysates were prepared for examination of CYP1A1 protein expression from untreated MCF-7, IGROV-1 and HCT 116 cultures and following exposure of cells to compounds 1, 2, 2a, 2b, 3, 3a, 3b, 4, 4a and 4b. Following protein determination (n=3, [Bradford, 1976]) and addition of sample buffer, samples were boiled at 95°C for 5 min and solubilised proteins (50 μg) were separated by sodium dodecyl sulphate (SDS) polyacrylamide gel (10%) electrophoresis. Proteins were electroblotted to polyvinylidene difluoride (PVDF) membranes and probed for CYP1A1 protein with polyclonal antiserum specific for human CYP1A1/1A2 (Gentest Corporation). Secondary antibody was conjugated to alkaline phosphatase, and CYP1A1 was detected following brief (<10 min) incubation with bromochloroindolyl phosphate and nitro-blue tetrazolium in alkaline phosphatase buffer. Molecular weight markers and a positive control of recombinant CYP1A1 (Gentest Corporation), included in all blots, confirmed detection of 52 kDa CYP1A1 protein.

MDA-N = assay: NCI in vitro cytotoxicity assay (SRB), MDA-N; format: cell-based; conditions: Homo sapiens, 48 h exposure, sulforhodamine B assay, mean graph, read-out: Log10 GI50 (MDA-N) (converted)
Experimental: as §1

RPMI-8226 = assay: NCI in vitro cytotoxicity assay (SRB), RPMI-8226; format: cell-based; conditions: Homo sapiens, 48 h exposure, sulforhodamine B assay, mean graph, read-out: Log10 GI50 (RPMI-8226) (converted)
Experimental: as §1

[3] = system: CYP1A1 protein expression in IGROV-1 cells; assay: Western blot of CYP1A1 protein, IGROV-1 lysates; format: cell-based, human; conditions: 10 nM to 10 μM, 24 h, result not shown
Experimental: as §2

[4] = system: breast and ovarian xenografts; parameters: method as in Bradshaw et al, 2002; conditions: in vivo; ref Bradshaw et al, 2002; cited from earlier work
HCC-2998 = assay: NCI in vitro cytotoxicity assay (SRB), HCC-2998; format: cell-based; conditions: Homo sapiens, 48 h exposure, sulforhodamine B assay, mean graph, read-out: Log10 GI50 (HCC-2998) (converted)
Experimental: as §1

[5] = system: CYP1A1 activity (EROD) in IGROV-1 cells; assay: EROD activity in homogenates of treated IGROV-1 cells; format: cell-based, human; conditions: IGROV-1 cells treated 24 h; biphasic dose response
Experimental: A sensitive and rapid fluorometric assay was used to measure EROD activity ([Burke et al, 1994]). Incubation mixtures (total 1 ml) consisted of 100 mM Tris-HCl (pH 7.4), 50 μM MgCl2, 100 μM 7-ethoxyresorufin and 100 μl cell homogenate. Homogenates were prepared following treatment of cells for 24 h with compounds 1, 2, 2a, 2b, 3, 3a, 3b, 4, 4a and 4b or vehicle alone and protein content determined (n=3). Thus induction of ethoxyresorufin O-deethylation by agents under study, catalysed by CYP1A1 activity, could be determined. Alternatively, microsomes expressing recombinant CYP1A1 (0.1 mg ml^−1) provided the enzyme source for EROD catalysis, in the presence or absence of drug, in order to determine inhibition of CYP1A1 activity by compounds 1, 2, 2a, 2b, 3, 3a, 3b, 4, 4a and 4b. Incubation mixtures were pre-incubated for 5 min at 37°C before initiation of reaction by addition of NADPH (500 μM). Following further incubations at 37°C (30 min for cell homogenates, 15 min for CYP1A1 microsomes), reactions were terminated by addition of 3 ml ice-cold acetonitrile. […] Fluorescence was read on a Perkin-Elmer LS-5 luminescence spectrometer (excitation, 530 nm; emission 585 nm). Estimation of resorufin reaction product (pmoles mg^−1 protein, pmoles 100 μg^−1 microsomes), as a measure of CYP1A1 activity, was determined following performance of a resorufin standard curve.

Row | SMILES | GI50 (CAKI-1) [nM] | GI50 (NCI-460) [nM] | Biotransformation products of liberated parent amine in media (MCF-7 cells) | GI50 (NCI-H522) [nM] | Persistence of plasma concentrations sufficient for cytocidal activity against human mammary carcinoma cells [1] [h] | GI50 (KM12) [nM] | GI50 (EKVX) [nM] | CYP1A1 protein expression (Western blot) [2] | GI50 (MDA-N) [nM] | GI50 (RPMI-8226) [nM] | CYP1A1 protein expression (Western blot) [3] | Growth of breast and ovarian xenografts [4] | GI50 (HCC-2998) [nM] | Concentration giving maximum induction of EROD activity [5] [nM]
1 | Cc1cc(-c2nc3cc(F)ccc3s2)ccc1N [Compound 2, 2-(4-Amino-3-methylphenyl)-5-fluorobenzothiazole] | 25700 | < 10 | No biotransformation products could be detected | 28800 | > 6 | 69200 | 1410 | induced | > 100000 | – | – | – | – | –
2 | Cc1cc(-c2nc3cc(F)ccc3s2)ccc1NC(=O)[C@@H](N)CCCCN [Compound 2b] | – | 70.8 | – | – | – | – | – | induced | – | 2450 | clearly observed | suppresses significantly | 741 | 1000
